Measurements from the NIST ThermoML archive (doi:10.1016/j.jct.2013.05.009).

Experiment: xn = mol fraction of the nth substance listed
Conditions: 101 kPa, Liquid; for mass density: Vibrating tube method; for speed of sound: fixed-path interferometer

CC(C)CC(C)(C)C [2,2,4-trimethylpentane] + CCCCO
Conditions	mass density, 298.15 K [kg/m3]	mass density, 308.15 K [kg/m3]	mass density, 318.15 K [kg/m3]	mass density, 328.15 K [kg/m3]	speed of sound, 298.15 K [m/s]	speed of sound, 308.15 K [m/s]	speed of sound, 318.15 K [m/s]	speed of sound, 328.15 K [m/s]
x1 = 0.03101	799.41	791.7	783.95	776.09	1229.7	1195.8	1162.1	1128.6
x1 = 0.07555	790.82	783.03	775.22	767.29	1216	1181.3	1146.9	1112.6
x1 = 0.1426	778.75	770.87	762.95	754.91	1196.8	1161.1	1125.6	1090.3
x1 = 0.2049	768.51	760.53	752.52	744.39	1180.8	1144.2	1107.8	1071.7
x1 = 0.2621	759.76	751.67	743.61	735.41	1167.3	1130	1092.5	1056.1
x1 = 0.3176	751.87	743.75	735.6	727.34	1155.5	1117.5	1079.8	1042.5
x1 = 0.3932	741.94	733.74	725.51	717.19	1141.1	1102.3	1063.9	1025.9
x1 = 0.4553	734.44	726.18	717.92	709.56	1130.7	1091.4	1052.6	1014.1
x1 = 0.5458	724.43	716.13	707.81	699.42	1117.4	1077.5	1038.1	999.2
x1 = 0.6067	718.27	709.93	701.6	693.2	1109.8	1069.5	1029.7	990.4
x1 = 0.6787	711.51	703.15	694.8	686.39	1101.9	1061.3	1021.1	981.6
x1 = 0.742	706.01	697.65	689.3	680.9	1095.9	1055.1	1014.7	974.8
x1 = 0.8095	700.58	692.21	683.87	675.5	1090.6	1049.5	1008.8	968.8
x1 = 0.8683	696.2	687.84	679.5	671.13	1086.7	1045.4	1004.6	964.3
x1 = 0.9078	693.42	685.07	676.75	668.4	1084.5	1043.1	1002.2	961.8
x1 = 0.9422	691.1	682.76	674.47	666.16	1082.9	1041.5	1000.6	960.2
x1 = 0.9619	689.83	681.51	673.25	664.98	1082.3	1040.7	1000	959.7
x1 = 0.981	688.66	680.37	672.16	663.97	1082.1	1040.9	1000.1	959.7
x1 = 1	687.68	679.45	671.3	663.17	1082.7	1041.1	1000.1	959.4
